Source: US20020051978A1, “Methods and compositions for the identification, assessment, prevention and therapy of human cancers” (priority 2000, published 2002)
Several values for one entry are separate records, joined by “and”; a condition that tells them apart may be missing. Equal entries are not always repeated. Where two headings read alike, the source gives them in different places.

Experiments:
[1] = system: 60 cancer cell lines (NCI 60 cancer cell line series); assay: NCI-DTP in vitro cancer screen, sulforhodamine B (SRB) growth inhibition, 48 hour exposure; assay type: cell-based, human; parameters: key to sensitivity class Ovarian OVCAR-8 CL6005 / sensitivity class Ovarian SK-OV-3 CL6011 / sensitivity class Prostate DU-145 CL11003 / sensitivity class NSCLC NCI-H522 CL1003 / sensitivity class Ovarian IGROV1 CL6010 / sensitivity class Ovarian OVCAR-4 CL6002 / sensitivity class Prostate PC-3(I) CL11001 / sensitivity class Renal A498 CL9013 / sensitivity class Renal SN12C CL9008: sensitivity class: 1 = Low, 2 = Medium, 3 = High
In short: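 Sixty NCI-DTP cancer lines plated at line-specific densities, dosed on day 1 in duplicate with 5 concentrations at ten-fold intervals. After 48 h exposure, cell mass read by SRB staining; GI50 (50% growth inhibition) taken from dose-response curves and expressed as -log GI50.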

[2] = system: 60 cancer cell lines (NCI 60 cancer cell line series); conditions: cited from earlier work

CN(Cc1cnc2nc(N)nc(N)c2n1)c1ccc(C(=O)N[C@@H](CCC(=O)O)C(=O)O)cc1 [Methotrexate]
classification of cell line as Low(1), Medium(2) or High(3) sensitivity to compound ([1]; Breast BT-549 (CL5013)): 1
classification of cell line as Low(1), Medium(2) or High(3) sensitivity to compound ([1]; Breast HS-578T CL5006): 1
classification of cell line as Low(1), Medium(2) or High(3) sensitivity to compound ([1]; Breast MCF7/ADRr (CL5002)): 2
classification of cell line as Low(1), Medium(2) or High(3) sensitivity to compound ([1]; Breast MDA-MB-231 CL5005): 1
classification of cell line as Low(1), Medium(2) or High(3) sensitivity to compound ([1]; Breast T-47D (CL5014)): 1
classification of cell line as Low(1), Medium(2) or High(3) sensitivity to compound ([1]; CNS SF-268 CL12014): 2
classification of cell line as Low(1), Medium(2) or High(3) sensitivity to compound ([1]; CNS SF-295 CL12015): 3
classification of cell line as Low(1), Medium(2) or High(3) sensitivity to compound ([1]; CNS SF-539 CL12016): 3
classification of cell line as Low(1), Medium(2) or High(3) sensitivity to compound ([1]; CNS U251(I) CL12009): 2
classification of cell line as Low(1), Medium(2) or High(3) sensitivity to compound ([1]; Colon COLO-250 CL4010): 2
classification of cell line as Low(1), Medium(2) or High(3) sensitivity to compound ([1]; Colon HCC-2998 (CL4002)): 2
classification of cell line as Low(1), Medium(2) or High(3) sensitivity to compound ([1]; Colon HCT-15 CL4015): 3
classification of cell line as Low(1), Medium(2) or High(3) sensitivity to compound ([1]; Colon HCT-116 (CL4003)): 3
classification of cell line as Low(1), Medium(2) or High(3) sensitivity to compound ([1]; Colon KM12 (CL4017)): 2
classification of cell line as Low(1), Medium(2) or High(3) sensitivity to compound ([1]; Leukemia HL-60(I) (CL7008)): 2
classification of cell line as Low(1), Medium(2) or High(3) sensitivity to compound ([1]; Leukemia K562(I) CL7005): 3
classification of cell line as Low(1), Medium(2) or High(3) sensitivity to compound ([1]; Leukemia RPMI-8226(I) (CL7010)): 2
classification of cell line as Low(1), Medium(2) or High(3) sensitivity to compound ([1]; Melanoma LOX IMVI CL10001): 3
classification of cell line as Low(1), Medium(2) or High(3) sensitivity to compound ([1]; Melanoma SK-MEL-2 (CL10005)): 1
classification of cell line as Low(1), Medium(2) or High(3) sensitivity to compound ([1]; Melanoma SK-MEL-5 (CL10007)): 2
classification of cell line as Low(1), Medium(2) or High(3) sensitivity to compound ([1]; Melanoma SK-MEL-28 (CL10008)): 1
classification of cell line as Low(1), Medium(2) or High(3) sensitivity to compound ([1]; Melanoma UACC-62 (CL10020)): 3
classification of cell line as Low(1), Medium(2) or High(3) sensitivity to compound ([1]; NSCLC A549/ATCC (CL1004)): 3
classification of cell line as Low(1), Medium(2) or High(3) sensitivity to compound ([1]; NSCLC EKVX (CL1008)): 1
classification of cell line as Low(1), Medium(2) or High(3) sensitivity to compound ([1]; NSCLC HOP-62 (CL1026)): 2
classification of cell line as Low(1), Medium(2) or High(3) sensitivity to compound ([1]; NSCLC HOP-92 (CL1029)): 1
classification of cell line as Low(1), Medium(2) or High(3) sensitivity to compound ([1]; NSCLC NCI-H226 CL1013): 1
sensitivity class NSCLC NCI-H23(I) CL1001 ([1]; cell line NSCLC NCI-H23(I), CL1001): 2
sensitivity class NSCLC NCI-H332M CL1017 ([1]; cell line NSCLC NCI-H332M, CL1017): 2
sensitivity class NSCLC NCI-H460 CL1021 ([1]; cell line NSCLC NCI-H460, CL1021): 3
sensitivity class Ovarian IGROV1 CL6010 ([1]; cell line Ovarian IGROV1, CL6010): 2
sensitivity class Ovarian OVCAR-3 CL6001 ([1]; cell line Ovarian OVCAR-3, CL6001): 2
sensitivity class Ovarian OVCAR-4 CL6002 ([1]; cell line Ovarian OVCAR-4, CL6002): 1
sensitivity class Ovarian OVCAR-5 CL6003 ([1]; cell line Ovarian OVCAR-5, CL6003): 2
sensitivity class Prostate DU-145 CL11003 ([1]; cell line Prostate DU-145, CL11003): 2
sensitivity class Renal A498 CL9013 ([1]; cell line Renal A498, CL9013): 1
sensitivity class Renal ACHN CL9023 ([1]; cell line Renal ACHN, CL9023): 2
sensitivity class Renal RXF-393 CL9016 ([1]; cell line Renal RXF-393, CL9016): 1
sensitivity class Renal SN12C CL9008 ([1]; cell line Renal SN12C, CL9008): 3
sensitivity class Renal TK10 CL9024 ([1]; cell line Renal TK10, CL9024): 1
sensitivity class Renal UO-31 CL9004 ([1]; cell line Renal UO-31, CL9004): 2
-Log (GI50) ([2]; Breast MCF7/ADRr (CL5002)): 7.3 and 7.0
-Log (GI50) ([2]; CNS SF-268 CL12014): 7.5 and 7.3
-Log (GI50) ([2]; Colon COLO-250 CL4010): 6.2 and 6.0
-Log (GI50) ([2]; Colon HCC-2998 (CL4002)): 7.0 and 6.9
-Log (GI50) ([2]; Colon HT29(I) CL4001): 7.7 and 7.5
-Log (GI50) ([2]; Colon KM12 (CL4017)): 7.4 and 7.3
-Log (GI50) ([2]; Colon SW-620 (CL4009)): 7.2 and 7.5
-Log (GI50) ([2]; Leukemia CCRF-CEM(I) (CL7003)): 7.4 and 7.5
-Log (GI50) ([2]; Leukemia HL-60(I) (CL7008)): 7.4
-Log (GI50) ([2]; Leukemia MOLT-4 (CL7006)): 7.6 and 7.5
-Log (GI50) ([2]; Leukemia RPMI-8226(I) (CL7010)): 6.9 and 7.1
-Log (GI50) ([2]; Melanoma M14 (CL10014)): 7.5
-Log (GI50) ([2]; Melanoma MALME-3M CL10002): 5.4 and 5.5
-Log (GI50) ([2]; Melanoma SK-MEL-5 (CL10007)): 7.2 and 7.0
-Log (GI50) ([2]; Melanoma SK-MEL-28 (CL10008)): 5.3 and 5.4
-Log (GI50) ([2]; NSCLC EKVX (CL1008)): 5.0
-Log (GI50) ([2]; NSCLC HOP-92 (CL1029)): 5.1
-Log (GI50) ([2]; NSCLC NCI-H332M CL1017): 6.4 and 6.3
-Log (GI50) ([2]; Prostate DU-145 CL11003): 7.6 and 7.3
-Log (GI50) ([2]; Renal 786-O CL9018): 7.5
